# Patent US8324225B2, “Pyrrolopyrimidine compounds and their uses” (Novartis AG, priority 2006, dated 2012)
# Molecular target: hCDK1/B (Homo sapiens, UniProt P06493)
# Assay: hCDK1/B
# Type: biochemical
# Settings: Table E; read-out: hCDK1/B/IC50 [umol l − 1]
# hCDK1/B, sequence (P06493 whole entry): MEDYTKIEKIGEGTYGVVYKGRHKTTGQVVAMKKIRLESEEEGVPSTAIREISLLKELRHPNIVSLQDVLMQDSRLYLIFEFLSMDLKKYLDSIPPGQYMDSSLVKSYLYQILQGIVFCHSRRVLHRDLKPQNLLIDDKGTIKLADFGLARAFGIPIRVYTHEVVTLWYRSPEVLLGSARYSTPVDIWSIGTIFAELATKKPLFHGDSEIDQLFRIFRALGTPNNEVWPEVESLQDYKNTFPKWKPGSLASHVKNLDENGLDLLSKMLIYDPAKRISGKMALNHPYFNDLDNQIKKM
# hCDK1/B, sequence (P14635 whole entry partner): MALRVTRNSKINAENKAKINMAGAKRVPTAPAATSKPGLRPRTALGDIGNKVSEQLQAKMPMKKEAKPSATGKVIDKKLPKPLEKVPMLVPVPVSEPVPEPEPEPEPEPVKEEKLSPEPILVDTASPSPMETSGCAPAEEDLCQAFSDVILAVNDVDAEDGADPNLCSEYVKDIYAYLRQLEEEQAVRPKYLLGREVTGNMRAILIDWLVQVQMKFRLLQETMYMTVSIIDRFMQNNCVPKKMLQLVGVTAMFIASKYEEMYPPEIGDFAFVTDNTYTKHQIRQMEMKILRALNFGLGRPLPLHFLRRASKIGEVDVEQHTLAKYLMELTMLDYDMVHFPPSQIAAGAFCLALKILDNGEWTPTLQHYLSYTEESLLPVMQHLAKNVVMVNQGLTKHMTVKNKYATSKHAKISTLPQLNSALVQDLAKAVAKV
row,IC50,SMILES
1,> 15 µM,Cc1cn(C2CCCC2)c2nc(Nc3ccc4[nH]ccc4c3)ncc12 [Example 282]

# Molecular target: CDK4 (Homo sapiens, UniProt P11802)
# Assay: CDK4 HTRF
# Type: biochemical
# Settings: Table E; read-out: CDK4 HTRF/IC50 [umol l − 1]
# CDK4, sequence (P11802 whole entry): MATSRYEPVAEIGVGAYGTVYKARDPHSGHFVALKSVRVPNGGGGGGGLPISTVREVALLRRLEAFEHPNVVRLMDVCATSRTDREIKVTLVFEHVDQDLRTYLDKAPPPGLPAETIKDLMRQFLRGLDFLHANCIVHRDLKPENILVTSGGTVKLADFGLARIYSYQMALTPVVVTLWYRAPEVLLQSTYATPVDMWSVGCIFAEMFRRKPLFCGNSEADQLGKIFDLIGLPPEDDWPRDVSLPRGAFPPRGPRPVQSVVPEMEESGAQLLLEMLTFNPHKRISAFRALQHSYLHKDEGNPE
# CDK4, sequence (P24385 whole entry partner): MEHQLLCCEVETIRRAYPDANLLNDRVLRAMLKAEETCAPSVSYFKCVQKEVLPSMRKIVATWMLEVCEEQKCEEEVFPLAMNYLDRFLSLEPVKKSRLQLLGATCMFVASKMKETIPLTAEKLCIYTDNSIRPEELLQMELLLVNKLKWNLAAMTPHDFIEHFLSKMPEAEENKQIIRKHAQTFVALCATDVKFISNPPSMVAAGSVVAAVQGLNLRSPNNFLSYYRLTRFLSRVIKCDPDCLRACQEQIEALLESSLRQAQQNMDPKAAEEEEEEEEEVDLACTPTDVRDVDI
row,IC50,SMILES
1,< 10 µM,CCC(C(=O)OC)n1ccc2cnc(Nc3ccc(N4CCN(C(C)=O)CC4)cc3)nc21 (centres unmarked) [Example 219]
2,< 10 µM,CCC(C(=O)OC)n1ccc2cnc(Nc3ccc(N4CCNCC4)cc3)nc21 (centres unmarked) [Example 221]
3,< 10 µM,CCC(C)n1ccc2cnc(Nc3ccc(N4CCN(C(C)=O)CC4)cc3)nc21 (centres unmarked) [Example 222]
4,< 10 µM,CCOC(=O)C(C(C)C)n1ccc2cnc(Nc3ccc(N4CCN(C(C)=O)CC4)cc3)nc21 (centres unmarked) [Example 223]
5,< 10 µM,CC(=O)N1CCN(c2ccc(Nc3ncc4ccn(C5CCCCC5=O)c4n3)cc2)CC1 (centres unmarked) [Example 226]
6,< 10 µM,CCC(C(N)=O)n1ccc2cnc(Nc3ccc(N4CCN(C(C)=O)CC4)cc3)nc21 (centres unmarked) [Example 227]
7,< 10 µM,CC(=O)N1CCN(c2ccc(Nc3ncc4ccn(C5CCOCC5)c4n3)cc2)CC1 [Example 228]
8,< 10 µM,CC(=O)N1CCN(c2ccc(Nc3ncc4ccn(C(C)CN(C)C)c4n3)cc2)CC1 (centres unmarked) [Example 229]
9,< 10 µM,CCC(C(N)=O)n1ccc2cnc(Nc3ccc(N4CCNCC4)cc3)nc21 (centres unmarked) [Example 234]
10,< 10 µM,c1cc(N2CCNCC2)ccc1Nc1ncc2ccn(C3CCOCC3)c2n1 [Example 235]
11,< 10 µM,CC(=O)N1CCN(c2ccc(Nc3ncc4ccn(C5CCC(C)CC5)c4n3)cc2)CC1 (centres unmarked) [Example 236]
12,< 10 µM,CCC(=O)N1CCN(c2ccc(Nc3ncc4ccn(C(CC)CC)c4n3)cc2)CC1 [Example 237]
13,< 10 µM,CC(=O)N1CCN(c2ccc(Nc3ncc4ccn(C5CCCC(C)C5)c4n3)cc2)CC1 (centres unmarked) [Example 241]
14,< 10 µM,CN(C)CC1CCC(n2ccc3cnc(Nc4ccc(N5CCNCC5)cc4)nc32)C1 (centres unmarked) [Example 249]
15,< 10 µM,CN1CCN(c2ccc(Nc3ncc4ccn(C5CCCC5)c4n3)nc2)CC1 [Example 255]
16,< 10 µM,Cc1cn(C2CCCC2)c2nc(Nc3ccc(N4CCCCC4)cc3)ncc12 [Example 278]
17,< 10 µM,Cc1cn(C2CCCC2)c2nc(Nc3ccc4[nH]ncc4c3)ncc12 [Example 281]
18,> 10 µM,Cc1cn(C2CCCC2)c2nc(Nc3ccc4[nH]ccc4c3)ncc12 [Example 282]
19,< 10 µM,Cc1cn(C2CCCC2)c2nc(Nc3ccc(N4CCNCC4)nc3)ncc12 [Example 283]

row,IC50,SMILES
1,< 10 µM,Cc1cn(C2CCCC2)c2nc(Nc3ccc(N4CCNCC4)c(F)c3)ncc12 [Example 285]
2,< 10 µM,Cc1cn(C2CCCC2)c2nc(Nc3ccc(N4CCN(S(C)(=O)=O)CC4)cc3)ncc12 [Example 286]
3,< 10 µM,Cc1cn(C2CCCC2)c2nc(Nc3ccc(S(N)(=O)=O)cc3)ncc12 [Example 288]
4,< 10 µM,Cc1cn(C2CCCC2)c2nc(Nc3ccc(C(=O)N4CCOCC4)cc3)ncc12 [Example 292]
5,< 10 µM,Cc1cn(C2CCCC2)c2nc(Nc3ccncc3)ncc12 [Example 298]
6,< 10 µM,Cc1cn(C2CCCC2)c2nc(Nc3cccnc3)ncc12 [Example 300]
7,< 10 µM,Cc1cn(C2CCCC2)c2nc(Nc3ccc(N4CCOCC4)cn3)ncc12 [Example 302]
8,< 10 µM,Cc1cn(C2CCCC2)c2nc(Nc3ccc(N(C)C)cc3)ncc12 [Example 311]
9,< 10 µM,Cc1cn(C2CCCC2)c2nc(Nc3ccc(-n4ccnc4)cc3)ncc12 [Example 312]
10,< 10 µM,"Cc1cn(-c2ccccn2)c2nc(Nc3ccc(N4CCNCC4)cn3)ncc12 [Example 320, (5-Methyl-7-pyridin-2-yl-7H-pyrrolo[2,3-d]pyrimidin-2-yl)-(5-piperazin-1-yl-pyridin-2-yl)-amine]"
11,< 10 µM,Cc1cn(-c2nccs2)c2nc(Nc3ccc(N4CCNCC4)cn3)ncc12 [Example 321]
12,< 10 µM,Cc1cn(-c2cccnc2)c2nc(Nc3ccc(N4CCNCC4)cc3)ncc12 [Example 322]
13,< 10 µM,CCCCNC(=O)c1cc2cnc(Nc3ccc(N4CCNCC4)cc3)nc2n1C(CC)CC [Example 336]
14,< 10 µM,CCC(CC)n1c(C(=O)N2CCCC2)cc2cnc(Nc3ccc(N4CCNCC4)cc3)nc21 [Example 337]
15,< 10 µM,CCC(CC)n1c(C(=O)N2CCOCC2)cc2cnc(Nc3ccc(N4CCNCC4)cc3)nc21 [Example 343]
16,< 10 µM,CCC(CC)n1c(C(=O)NC2CCCC2)cc2cnc(Nc3ccc(N4CCNCC4)cc3)nc21 [Example 344]
17,< 10 µM,CCC(CC)n1c(C(=O)Nc2ccc(C(C)(C)C)cc2)cc2cnc(Nc3ccc(N4CCNCC4)cc3)nc21 [Example 349]
18,< 10 µM,CCC(CC)n1c(C(=O)Nc2ccc(CN3CCN(C)CC3)cc2)cc2cnc(Nc3ccc(N4CCNCC4)cc3)nc21 [Example 354]
19,< 10 µM,CCC(CC)n1c(CNC(C)C)cc2cnc(Nc3ccc(N4CCN(C(C)=O)CC4)cc3)nc21 [Example 366]

row,IC50,SMILES
1,< 10 µM,CCC(CC)n1c(CNC(C)C)cc2cnc(Nc3ccc(N4CCNCC4)cc3)nc21 [Example 367]
2,< 10 µM,CCC(CC)n1c(CNc2cccnc2)cc2cnc(Nc3ccc(N4CCN(C(C)=O)CC4)cc3)nc21 [Example 369]
3,< 10 µM,CCC(CC)n1c(CNC2CCCC2)cc2cnc(Nc3ccc(N4CCN(C(C)=O)CC4)cc3)nc21 [Example 370]
4,< 10 µM,CCC(CC)n1c(CNc2ccon2)cc2cnc(Nc3ccc(N4CCN(C(C)=O)CC4)cc3)nc21 [Example 371]
5,< 10 µM,CCC(CC)n1c(CNc2cc(C)[nH]n2)cc2cnc(Nc3ccc(N4CCN(C(C)=O)CC4)cc3)nc21 [Example 372]
6,< 10 µM,"CCC(CC)n1c(C(=O)OC)cc2cnc(Nc3ccc(N4CCN(C(C)=O)CC4)cc3)nc21 [Example 373, 2-[4-(4-Acetyl-piperazin-1-yl)-phenylamino]-7-(1-ethyl-propyl)-7H-pyrrolo[2,3-d]pyrimidine-6-carboxylic acid methyl ester]"
7,< 10 µM,CCC(CC)n1c(COC)cc2cnc(Nc3ccc(N4CCN(C(C)=O)CC4)cc3)nc21 [Example 379]
8,< 10 µM,CCC(CC)n1c(COC)cc2cnc(Nc3ccc(C(=O)NC4CCCC4)cc3)nc21 [Example 380]
9,< 10 µM,CC(=O)c1c(C)c2cnc(Nc3ccc(N4CCNCC4)cn3)nc2n1C1CCOCC1 [Example 388]
10,< 10 µM,Cc1c(C(=O)N(C)C)n(C2CCCC2)c2nc(Nc3ccc(N4CCNCC4)cn3)ncc12 [Example 392]
11,< 10 µM,Cc1cc(-c2c(C)c3cnc(Nc4ccc(N5CCNCC5)cn4)nc3n2C2CCCC2)on1 [Example 405]
12,< 10 µM,Cc1cn(-c2ccccc2)c2nc(Nc3ccc(N4CCNCC4)cc3)ncc12 [Example 437]
13,< 10 µM,CCc1cn(C2CCCC2)c2nc(Nc3ccc(N4CCNCC4)cc3)ncc12 [Example 438]
14,< 10 µM,CC(C)c1cn(C2CCCC2)c2nc(Nc3ccc(N4CCNCC4)cn3)ncc12 [Example 440]
15,< 10 µM,CCC(CC)n1c(CNCc2ccco2)cc2cnc(Nc3ccc(N4CCN(C(C)=O)CC4)cc3)nc21 [Example 449]
16,< 10 µM,Cc1cn(C2CCCC2)c2nc(Nc3ccc(CN4CCN(C(=O)OC(C)(C)C)CC4)cc3)ncc12 [Example 462]
17,< 10 µM,Cc1cn(C2CCCC2)c2nc(Nc3ccc(CO)cc3)ncc12 [Example 466]
18,< 10 µM,CN(C)C(=O)c1cc2cnc(NCc3ccc(N4CCNCC4)cc3)nc2n1C1CCCC1 [Example 467]

# Molecular target: CDK4/Cyclin-D1 kinase complex (Homo sapiens, UniProt P11802)
# Assay: CDK4 ELISA based assay, Rb phosphorylation at Serine780
# Type: biochemical
# Settings: Table C
# Text: The compounds that inhibit the CDK4 kinase activity would inhibit the signal output of the assay.
# CDK4/Cyclin-D1 kinase complex, sequence (P11802 whole entry): as the sequence (P11802 whole entry) above
# CDK4/Cyclin-D1 kinase complex, sequence (P24385 whole entry partner): as the sequence (P24385 whole entry partner) above
row,IC50,SMILES
1,< 10 µM,CC(=O)N1CCN(c2ccc(Nc3ncc4c(C)cn(C5CCCC5)c4n3)cc2)CC1
2,< 10 µM,Cc1cn(C2CCCC2)c2nc(Nc3ccc(N4CCNCC4)cn3)ncc12
3,< 10 µM,Cc1cn(C2CCCC2)c2nc(Nc3ccc(N4CCN(C)CC4)cc3)ncc12
4,> 10 µM,CC(C)(C)OC(=O)N1CCN(c2ccc(Nc3ncc4ccn(C5CCCC5)c4n3)nc2)CC1
5,> 10 µM,CC(=O)N1CCN(c2ccc(Nc3ncc4ccn(C5CCCC5)c4n3)nc2)CC1
6,< 10 µM,CN1CCN(c2ccc(Nc3ncc4ccn(C5CCCC5)c4n3)cc2)CC1
7,> 10 µM,CC(=O)N1CCN(c2ccc(Nc3ncc4ccn(C5CCCC5)c4n3)cc2)CC1
8,< 10 µM,Cc1cn(C2CC2)c2nc(Nc3ccc(N4CCNCC4)cc3)ncc12
9,< 10 µM,c1cc(N2CCNCC2)ccc1Nc1ncc2ccn(C3CCCC3)c2n1
10,< 10 µM,Cc1cn(C2CCCCC2)c2nc(Nc3ccc(N4CCNCC4)cn3)ncc12
11,< 10 µM,Cc1cn(C2CC2)c2nc(Nc3ccc(N4CCNCC4)cn3)ncc12

row,SMILES,IC50
1,c1cc(Nc2ncc3ccn(C4CCCC4)c3n2)ncc1N1CCNCC1,> 10 µM

# Molecular target: CDK2/Cyclin-A kinase complex (Homo sapiens, UniProt P24941)
# Assay: CDK2 IMAP fluorescence polarization assay
# Type: biochemical
# Settings: Table C; read-out: CDK2 IC50
# Text: In order to test the CDK2 activity of the compounds of the invention, the CDK2 assay is a fluorescence polarization assay, where the enzyme is a purified active CDK2/Cyclin-A kinase complex and the substrate is a synthesized peptide derived from Histone H1. This assay utilizes the IMAP technology from Molecular Devices. The active CDK2/Cyclin-A complex phosphorylates the peptide substrate, which is conjugated with the TAMRA tag. The phosphorylated site is then recognized by a metal containing molecule that interacts with the TAMRA tag to induce a high fluorescence polarization. The compounds that inhibit the CDK2 kinase activity would inhibit the fluorescence output of the assay.
row,IC50,SMILES
1,< 10 µM,CC(=O)N1CCN(c2ccc(Nc3ncc4c(C)cn(C5CCCC5)c4n3)cc2)CC1
2,< 10 µM,Cc1cn(C2CCCC2)c2nc(Nc3ccc(N4CCNCC4)cc3)ncc12
3,> 10 µM,Cc1cn(C2CCCC2)c2nc(Nc3ccc(N4CCNCC4)cn3)ncc12
4,> 10 µM,Cc1cn(C2CCCC2)c2nc(Nc3ccc(N4CCN(C)CC4)cc3)ncc12

# Same assay, conditions: Table E; read-out: CDK2cyA IMAP/IC50 [umol l − 1]
row,IC50,SMILES
1,> 15 µM,Cc1cn(C2CCCC2)c2nc(Nc3ccc4[nH]ccc4c3)ncc12 [Example 282]
